# Reference: patent US9334267B2, “RAF inhibitor compounds” (Deciphera Pharmaceuticals, LLC, priority 2012, dated 2016)
# Tests used:
# HT-29 cells = experiment: HT-29 cell proliferation assay (resazurin); type: cell-based; details: Homo sapiens, V600E mutation, read-out: Cell Proliferation Inhibition IC50, nM HT-29
# Experimental: HT-29 cells (catalog #HTB-38) are obtained from the American Type Culture Collection (ATCC, Manassas, Va.). Briefly, cells are grown in McCoy's 5A supplemented with 10% characterized fetal bovine serum (Invitrogen, Carlsbad, Calif.), and 1% Penicillin/Streptomycin/L-Glutamine at 37 degrees Celsius, 5% CO2, and 95% humidity. Cells are allowed to expand until reaching 75-90% confluency at which point they are subcultured or harvested for assay use. A serial dilution of test compound is dispensed into a 384-well black clear bottom plate in triplicate. One thousand two-hundred fifty cells are added per well in 50 μL complete growth medium in the 384-well plate. Plates are incubated for 67 hours at 37 degrees Celsius, 5% CO2, and 95% humidity. At the end of the incubation period, 10 μL of a 440 μM solution of resazurin (Sigma, St. Louis, Mo.) in PBS is added to each well of the plate and plates are incubated for an additional 5 hours at 37 degrees Celsius, 5% CO2, and 95% humidity. Plates are read on a Synergy2 reader (Biotek, Winooski, Vt.) using an excitation of 540 nm and an emission of 600 nm. Data is analyzed using Prism software (Graphpad, San Diego, Calif.) to calculate IC50 values.
# The A375, HT-29, and Colo-205 cells (ATCC) harbor a V600E mutation.
# human wild type c-KIT = target: T1, human wild type c-KIT (Homo sapiens, UniProt P10721); experiment: Enzymatic assay of c-Kit kinase activity (poly E4Y phosphorylation, coupled PK/LDH); type: biochemical
# T1 construct: GST (N); made in house
# Source text: c-Kit is an important oncogene, and its overexpression and genetic mutations often occur in melanoma and gastrointestinal stromal tumor (GIST) patients. In the c-Kit enzymatic assay, the phosphorylation of poly E4Y by ATP catalyzed by human c-Kit is monitored spectrophotometrically. The ADP produced from the kinase reaction is coupled to pyruvate kinase/lactate dehydrogenase (PK/LDH) reactions where NAD is formed from pyruvate and NADH. NADH can be detected by absorbance at 340 nm, as described above for enzymatic assays of kinase activities of B-Raf, C-Raf and B-Raf mutations.
# The assay reaction mixture includes 6 nM human wild type c-KIT, 1 mg/mL Poly (Glu,Tyr) (Sigma), 1 mM Phosphoenol-pyruvate, 280 μM NADH, 5 U/3.5 U (per 100 ul) Pyruvate Kinase/Lactate Dehydrogenase, 85 mM Tris, pH 7.5, 17 mM MgCl2, 0.0042% Triton® X-100, 0.005% BSA, 1% DMSO. Test compound is incubated with the reaction mixture for 0.5 hour before adding 200 μM ATP to start the reaction at 30° C.
# HCT-116 cells = experiment: HCT-116 cell proliferation assay (resazurin); type: cell-based; details: Homo sapiens, K-Ras mutation B-Raf wild type, read-out: Cell Proliferation Inhibition IC50, nM HCT-116
# human B-Raf V600E = target: T2, human B-Raf V600E (Homo sapiens, UniProt P15056, V600E); experiment: Enzymatic assay of B-Raf V600E kinase activity (Raf/MEK1 ATPase, coupled PK/LDH, A340); type: biochemical; details: read-out: Enzyme IC50, nM B-Raf V600E
# T2 construct: B-RafV600E (residues 433-726 containing V600E mutation) containing an N-terminal purification tag is expressed and purified; made in house
# Experimental: Test compounds are evaluated for their inhibitory activities against one or more of human wild type B-Raf, human wild type C-Raf, human B-Raf V600E, human B-Raf V600E+T529I or human B-Raf V600E+G468A. T529I is a threonine to isoleucine B-Raf gatekeeper mutation and G468A is a B-Raf secondary mutation at G1403C in exon 11. The enzymatic assays of B-Raf, C-Raf and B-Raf mutations evaluate a property of Raf and MEK1 complex, which in the presence of ATP, catalyzes an enhanced ATP hydrolysis (Rominger, et al, Arch. Biochem. Biophys. 2007, 464: 130-137; US Patent Publication No. 2006/0211073). The ADP formed is monitored by the well-known coupled PK/LDH (pyruvate kinase/lactate dehydrogenase) system in the form of NADH oxidation, which can be monitored and detected spectrophotometrically by absorbance at 340 nm (A340; for principal of the method see Schindler et al, Science, 2000, 289: 1938-1942). Raf activated MEK1 ATPase activity is a property shared by all forms of Raf proteins.
# B-RafV600E (residues 433-726 containing V600E mutation) containing an N-terminal purification tag is expressed and purified essentially as described previously (Wan et al, Cell, 2004, 116, 855-867).
# Test compounds are evaluated for their inhibitory activities against one or more of wild type B-Raf, wild type C-Raf, B-Raf V600E, B-Raf V600E+T529I and B-Raf V600E+G468A. T529I is a B-Raf gatekeeper mutation and G468A is a B-Raf secondary mutation. The enzymatic assays of B-Raf, C-Raf and B-Raf mutations evaluate a property of Raf and MEK1 complex, which in the presence of ATP, catalyzes an enhanced ATP hydrolysis (Rominger, et al, Arch. Biochem. Biophys. 2007, 464: 130-137). The ADP formed is monitored by the well-known coupled PK/LDH (pyruvate kinase/lactate dehydrogenase) system in the form of NADH oxidation, which can be monitored and detected by absorbance at 340 nm (A340; for principal of the method see Schindler et al, Science, 2000, 289: 1938-1942). Raf activated MEK1 ATPase activity is a property shared by all forms of Raf proteins. In the B-Raf wild type enzymatic assay, the reaction mixture contains 1.2 nM B-Raf, 30 nM MEK1, 1000 uM ATP, 3.5 units (per 100 ul) of PK, 5 units (per 100 ul) of LDH, 1 mM phosphoenol pyruvate (PEP), and 280 uM of NADH. In the C-Raf assay, the reaction mixture contains 0.6 nM C-Raf, 26 nM MEK1, 2000 uM ATP, and the same amount of PK, LDH, PEP and NADH as above. In the B-Raf V600E assay, the reaction mixture contains […] B-Raf V600E, 26 nM MEK1, 200 uM ATP and the same amount of PK, LDH, PEP and NADH as above. In the B-RafV600E+T529I assay, the reaction mixture contains 6.2 nM B-Raf V600E+T529I, 30 nM MEK1, 200 uM ATP and the same amount of PK, LDH, PEP and NADH as above. In the B-Raf V600E+G468A assay, the reaction mixture contains 3.5 nM B-Raf, 30 nM MEK1, 200 uM ATP and the same amount of PK, LDH, PEP and NADH as above. All assays are started by mixing the above mixture with test compound and monitoring at A340 continuously for approximately 5 hr. […] In the aforementioned assays, the enzyme constructs can be screened prior to or after cleavage of the N-terminal purification tag.
# T2 sequence (P15056 433-726 V600E): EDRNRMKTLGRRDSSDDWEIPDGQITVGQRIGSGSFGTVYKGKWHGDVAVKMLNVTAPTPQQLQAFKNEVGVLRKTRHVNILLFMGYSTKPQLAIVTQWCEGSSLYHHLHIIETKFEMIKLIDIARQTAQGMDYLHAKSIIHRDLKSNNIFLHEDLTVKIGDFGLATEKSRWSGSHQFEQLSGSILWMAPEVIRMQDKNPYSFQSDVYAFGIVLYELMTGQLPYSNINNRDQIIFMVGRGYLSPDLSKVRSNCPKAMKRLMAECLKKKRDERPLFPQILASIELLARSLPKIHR
# T1 sequence (P10721 26-976): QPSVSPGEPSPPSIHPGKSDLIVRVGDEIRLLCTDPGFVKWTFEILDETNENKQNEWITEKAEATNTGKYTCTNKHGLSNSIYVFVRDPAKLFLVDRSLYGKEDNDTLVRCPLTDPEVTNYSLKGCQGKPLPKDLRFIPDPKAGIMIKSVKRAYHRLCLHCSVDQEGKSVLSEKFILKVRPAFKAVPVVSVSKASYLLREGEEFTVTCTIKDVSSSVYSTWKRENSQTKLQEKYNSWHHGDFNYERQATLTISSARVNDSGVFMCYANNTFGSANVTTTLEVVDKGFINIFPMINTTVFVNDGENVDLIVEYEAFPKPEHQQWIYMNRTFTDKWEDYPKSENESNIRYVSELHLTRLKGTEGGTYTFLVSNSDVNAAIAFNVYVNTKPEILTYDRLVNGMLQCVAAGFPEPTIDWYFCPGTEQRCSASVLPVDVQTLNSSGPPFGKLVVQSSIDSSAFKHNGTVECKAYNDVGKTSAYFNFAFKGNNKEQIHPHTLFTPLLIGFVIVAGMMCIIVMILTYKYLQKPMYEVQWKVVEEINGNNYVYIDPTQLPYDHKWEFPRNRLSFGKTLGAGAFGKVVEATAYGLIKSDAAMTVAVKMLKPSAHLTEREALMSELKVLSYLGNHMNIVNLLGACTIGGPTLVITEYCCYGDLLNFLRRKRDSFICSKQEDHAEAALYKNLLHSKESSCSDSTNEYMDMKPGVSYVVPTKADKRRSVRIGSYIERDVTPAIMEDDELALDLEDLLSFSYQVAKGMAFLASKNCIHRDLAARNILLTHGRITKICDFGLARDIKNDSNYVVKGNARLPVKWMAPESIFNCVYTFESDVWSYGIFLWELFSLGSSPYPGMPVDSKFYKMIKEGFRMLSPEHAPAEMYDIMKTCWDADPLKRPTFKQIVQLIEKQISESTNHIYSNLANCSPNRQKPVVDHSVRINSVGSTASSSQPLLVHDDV
SMILES,IC50 (HT-29 cells) [nM],IC50 (human wild type c-KIT) [nM],IC50 shift A375 to A375res (A375res cells),IC50 (HCT-116 cells) [nM],IC50 (human B-Raf V600E) [nM]
"CNc1ncc2cc(-c3cc(NC(=O)NCCC4(C)CC4)c(F)cc3C)c(C)nc2n1 [Example 24, 1-(2-Fluoro-4-methyl-5-(7-methyl-2-(methylamino)pyrido[2,3-d]pyrimidin-6-yl)phenyl)-3-(2-(1-methylcyclopropyl)ethyl)urea]",< 100,< 150,0.6-1.9 fold,100 to 1000,< 150
"CNc1ncc2cc(-c3cc(NC(=O)NCCC4(C(F)(F)F)CC4)c(F)cc3C)c(C)nc2n1 [Example 30, 1-(2-Fluoro-4-methyl-5-(7-methyl-2-(methylamino)pyrido[2,3-d]pyrimidin-6-yl)phenyl)-3-(2-(1-(trifluoromethyl)cyclopropyl)ethyl)urea]",< 100,< 150,0.6-1.9 fold,100 to 1000,< 150
"CNc1ncc2cc(-c3cc(NC(=O)NCCC(C)(C)F)c(F)cc3C)cnc2n1 [Example 34, 1-(3-Fluoro-3-methyl-butyl)-3-[2-fluoro-4-methyl-5-(2-methylaminopyrido[2,3-d]pyrimidin-6-yl)phenyl]urea]",< 100,< 150,0.6-1.9 fold,100 to 1000,< 150
"CNc1ncc2cc(-c3cc(NC(=O)NCCC(C)(C)C)c(F)cc3C)cnc2n1 [Example 35, 1-(3,3-Dimethylbutyl)-3-[2-fluoro-4-methyl-5-(2-methylaminopyrido[2,3-d]pyrimidin-6-yl)phenyl]urea]",< 100,< 150,0.6-1.9 fold,100 to 1000,< 150

# Results, then the compound that gave them:
IC50 (HT-29 cells) [nM],IC50 (human wild type c-KIT) [nM],IC50 shift A375 to A375res (A375res cells),IC50 (HCT-116 cells) [nM],IC50 (human B-Raf V600E) [nM],SMILES
< 100,< 150,0.6-1.9 fold,100 to 1000,< 150,"Cc1cc(F)c(NC(=O)NCCC(C)(C)F)cc1-c1cc2cnc(NC3COC3)nc2nc1C [Example 25, 1-(3-Fluoro-3-methylbutyl)-3-(2-fluoro-4-methyl-5-(7-methyl-2-(oxetan-3-ylamino)pyrido[2,3-d]pyrimidin-6-yl)phenyl)urea]"
< 100,< 150,0.6-1.9 fold,1000 to 10000,< 150,"CCNc1ncc2cc(-c3cc(NC(=O)NCCC(C)(C)F)c(F)cc3C)c(C)nc2n1 [Example 26, 1-(5-(2-(Ethylamino)-7-methylpyrido[2,3-d]pyrimidin-6-yl)-2-fluoro-4-methylphenyl)-3-(3-fluoro-3-methylbutyl)urea]"
< 100,< 150,0.6-1.9 fold,100 to 1000,< 150,"CNc1ncc2cc(-c3cc(NC(=O)NCCC(C)(C)C(F)(F)F)c(F)cc3C)c(C)nc2n1 [Example 27, 1-(2-Fluoro-4-methyl-5-(7-methyl-2-(methylamino)pyrido[2,3-d]pyrimidin-6-yl)phenyl)-3-(4,4,4-trifluoro-3,3-dimethylbutyl)urea]"
100 to 1000,< 150,0.6-1.9 fold,1000 to 10000,< 150,"Cc1cc(F)c(NC(=O)NCCC(C)(C)F)cc1-c1cc2cnc(N)nc2nc1C [Example 28, 1-(5-(2-Amino-7-methylpyrido[2,3-d]pyrimidin-6-yl)-2-fluoro-4-methylphenyl)-3-(3-fluoro-3-methylbutyl)urea]"
